Test results as given in BindingDB's records for doi:10.1021/bi3002067 (The University of Auckland, 2012).

Target: Salicylate synthase (Mycobacterium tuberculosis (strain CDC 1551 / Oshkosh), UniProt P9WFX0)
Assay: Fluorescence-Based Thermal Shift Assay
Description: The thermal stability of MbtI in the absence and presence of inhibitors was measured using a fluorescence-based thermal shift assay.

Sequence of Salicylate synthase (P9WFX0 whole entry): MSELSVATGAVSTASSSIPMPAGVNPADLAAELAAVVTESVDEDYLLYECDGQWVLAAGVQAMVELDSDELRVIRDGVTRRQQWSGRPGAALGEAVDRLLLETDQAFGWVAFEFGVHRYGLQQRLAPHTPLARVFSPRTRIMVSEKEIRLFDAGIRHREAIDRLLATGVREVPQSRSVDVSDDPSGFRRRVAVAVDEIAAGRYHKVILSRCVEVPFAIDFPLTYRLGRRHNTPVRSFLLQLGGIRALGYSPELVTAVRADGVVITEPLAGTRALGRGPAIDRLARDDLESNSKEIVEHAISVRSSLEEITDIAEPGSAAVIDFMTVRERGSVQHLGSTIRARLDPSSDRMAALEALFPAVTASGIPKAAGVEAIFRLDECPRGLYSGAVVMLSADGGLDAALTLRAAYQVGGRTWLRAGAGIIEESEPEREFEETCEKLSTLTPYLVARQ

Q: For `O=C(O)C(=CC1CC1)Oc1cccc(C(=O)O)c1O` [cyclopropyl-AMT], which Ki is on record?
A: 12 µM
